Experimental data taken from patent publication US12134611B2, “Compounds and compositions for treating conditions associated with NLRP activity” (Novartis AG, priority 2018, dated 2024).
pIC50: −log10 of the molar value.

Target: T1, hNLRP3 (Homo sapiens, UniProt Q96P20)
T1 construct: THP-1 cells were purchased from the American Type Culture Collection; host or cells: THP-1 cells, PMA-differentiated, stimulated with gramicidin
Assay: IL-1β production in PMA-differentiated THP-1 cells stimulated with gramicidin (hTHP-1 assay)
Type: cell-based
Details: read-out: NLRP3 Antagonist, hNLRP3 (THP-1, IL-1b) Normalized: GeoMean IC50

T1 sequence (Q96P20 whole entry): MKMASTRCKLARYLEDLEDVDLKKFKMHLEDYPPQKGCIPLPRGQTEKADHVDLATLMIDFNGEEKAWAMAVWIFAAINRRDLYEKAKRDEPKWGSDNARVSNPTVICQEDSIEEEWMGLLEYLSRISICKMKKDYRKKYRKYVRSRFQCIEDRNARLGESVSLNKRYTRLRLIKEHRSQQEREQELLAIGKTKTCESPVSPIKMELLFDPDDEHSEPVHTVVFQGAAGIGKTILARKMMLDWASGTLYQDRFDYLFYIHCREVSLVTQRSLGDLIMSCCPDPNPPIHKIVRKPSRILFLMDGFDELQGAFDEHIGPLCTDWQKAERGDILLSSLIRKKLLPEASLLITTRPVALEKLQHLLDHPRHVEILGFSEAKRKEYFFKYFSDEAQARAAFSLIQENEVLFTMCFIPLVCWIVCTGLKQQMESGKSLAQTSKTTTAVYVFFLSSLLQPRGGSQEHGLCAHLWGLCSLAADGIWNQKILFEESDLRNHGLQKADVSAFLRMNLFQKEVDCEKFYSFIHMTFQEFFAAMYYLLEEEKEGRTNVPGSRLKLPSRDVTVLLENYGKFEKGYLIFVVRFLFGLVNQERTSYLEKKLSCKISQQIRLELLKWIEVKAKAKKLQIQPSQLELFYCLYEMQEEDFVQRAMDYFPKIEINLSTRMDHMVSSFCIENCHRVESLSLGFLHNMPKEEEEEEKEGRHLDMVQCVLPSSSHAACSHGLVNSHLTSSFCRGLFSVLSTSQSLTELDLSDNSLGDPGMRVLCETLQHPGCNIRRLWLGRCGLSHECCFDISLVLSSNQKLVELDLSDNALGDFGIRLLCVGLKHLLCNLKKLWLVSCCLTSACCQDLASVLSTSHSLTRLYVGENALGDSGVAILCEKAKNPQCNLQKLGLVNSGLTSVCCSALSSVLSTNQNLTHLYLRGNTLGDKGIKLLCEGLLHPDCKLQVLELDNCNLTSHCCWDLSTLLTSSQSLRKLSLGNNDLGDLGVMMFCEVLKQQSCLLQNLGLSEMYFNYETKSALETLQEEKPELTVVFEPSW

| pIC50 | Compound |
| --- | --- |
| < 4.52 | O=C(N=S1(=O)NC(=O)c2ccc(-n3cccn3)cc21)Nc1c2c(cc3c1CCC3)CCC2 (stereo not shown) [Compound 211, 1-(1,2,3,5,6,7-hexahydro-s-indacen-4-yl)-3-(1-oxido-3-oxo-6-(1H-pyrazol-1-yl)-2,3-dihydro-1l4-benzo[d]isothiazol-1-ylidene)urea] |
| 5.30 to 6.00 | CNC(=O)c1ccc2c(c1)S(=O)(=NC(=O)Nc1c3c(cc4c1CCC4)CCC3)NC2=O (stereo not shown) [Compound 213, 1-(((1,2,3,5,6,7-hexahydro-s-indacen-4-yl)carbamoyl)imino)-N-methyl-3-oxo-2,3-dihydro-1H-1l4-benzo[d]isothiazole-6-carboxamide 1-oxide] |
| 4.52 to 5.30 | CN(C)C(=O)c1ccc2c(c1)S(=O)(=NC(=O)Nc1c3c(cc4c1CCC4)CCC3)NC2=O (stereo not shown) [Compound 214, 1-(((1,2,3,5,6,7-hexahydro-s-indacen-4-yl)carbamoyl)imino)-N,N-dimethyl-3-oxo-2,3-dihydro-1H-1l4-benzo[d]isothiazole-6-carboxamide 1-oxide] |
| 6.00 to 6.70 | O=C(N=S1(=O)NC(=O)c2ccc(CO)cc21)Nc1c2c(cc3c1CCC3)CCC2 (stereo not shown) [Compound 216, 1-(1,2,3,5,6,7-hexahydro-s-indacen-4-yl)-3-(6-(hydroxymethyl)-1-oxido-3-oxo-2,3-dihydro-1l4-benzo[d]isothiazol-1-ylidene)urea] |
| 6.00 to 6.70 | COCc1ccc2c(c1)S(=O)(=NC(=O)Nc1c3c(cc4c1CCC4)CCC3)NC2=O (stereo not shown) [Compound 217, 1-(1,2,3,5,6,7-hexahydro-s-indacen-4-yl)-3-(6-(methoxymethyl)-1-oxido-3-oxo-2,3-dihydro-1l4-benzo[d]isothiazol-1-ylidene)urea] |
| 6.00 to 6.70 | O=C(N=S1(=O)NC(=O)c2ccc(CNCC3CC3)cc21)Nc1c2c(cc3c1CCC3)CCC2 (stereo not shown) [Compound 218, 1-(6-(((cyclopropylmethyl)amino)methyl)-1-oxido-3-oxo-2,3-dihydro-1l4-benzo[d]isothiazol-1-ylidene)-3-(1,2,3,5,6,7-hexahydro-s-indacen-4-yl)urea] |
| 4.52 to 5.30 | O=C(N=S1(=O)NC(=O)c2cccnc21)Nc1c2c(cc3c1CCC3)CCC2 (stereo not shown) [Compound 223, 1-(1,2,3,5,6,7-hexahydro-s-indacen-4-yl)-3-(1-oxido-3-oxo-2,3-dihydro-1l4-isothiazolo[5,4-b]pyridin-1-ylidene)urea] |
| 4.52 to 5.30 | CC(C)(O)c1cc2c(s1)S(=O)(=NC(=O)Nc1c3c(cc4c1CCC4)CCC3)NC2=O (stereo not shown) [Compound 229, 1-(1,2,3,5,6,7-hexahydro-s-indacen-4-yl)-3-(5-(2-hydroxypropan-2-yl)-1-oxido-3-oxo-2,3-dihydro-1l4-thieno[3,2-d]isothiazol-1-ylidene)urea] |
| 6.00 to 6.70 | CC(C)(O)c1cccc(C2CC(=O)NS2(=O)=NC(=O)Nc2c3c(cc4c2CCC4)CCC3)c1 (stereo not shown) [Compound 253, 1-(1,2,3,5,6,7-hexahydro-s-indacen-4-yl)-3-(5-(3-(2-hydroxypropan-2-yl)phenyl)-1-oxido-3-oxo-1l6-isothiazolidin-1-ylidene)urea] |
| 4.52 to 5.30 | O=C(N=S1(=O)CCC(Cc2ccccc2)C(=O)N1)Nc1c2c(cc3c1CCC3)CCC2 (stereo not shown) [Compound 266, 1-(4-benzyl-1-oxido-3-oxo-1l6,2-thiazinan-1-ylidene)-3-(1,2,3,5,6,7-hexahydro-s-indacen-4-yl)urea] |
